Data from PubChem BioAssay AID2060490 (Molecular Pharmacology Branch, DTP, NCI, 2025).

Tested on: 885512-296-R-J2-PDC complex spheroid viability
Assay: Anticancer human tumor 885512-296-R-J2-PDC patient-derived breast carcinoma cell line growth inhibition [GQUAD]
Details: for IC50: curve of first compound; for viability, T/C: stronger effect = lower value; active = viability on the fitted dose curve at most 10% of control; inactive = the rest
Summary of the method: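 Tumor cells were grown as complex spheroids with HUVEC endothelial cells and mesenchymal stem cells as stroma. G-quadruplex stabilizers were combined with targeted agents over half-log dilutions from near the clinical Cmax, or from 10 microM.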

[1] = second compound 0.0316 µM, first compound 0.0316 µM
[2] = second compound 0.0316 µM, first compound 0.1 µM
[3] = second compound 0.0316 µM, first compound 0.316 µM
[4] = second compound 0.0316 µM, first compound 1 µM
[5] = second compound 0.0316 µM, first compound 3.16 µM
[6] = second compound 0.0316 µM, first compound 10 µM
[7] = second compound 0.1 µM, first compound 0.0316 µM
[8] = second compound 0.1 µM, first compound 0.1 µM
[9] = second compound 0.1 µM, first compound 0.316 µM
[10] = second compound 0.1 µM, first compound 1 µM
[11] = second compound 0.1 µM, first compound 3.16 µM
[12] = second compound 0.1 µM, first compound 10 µM
[13] = second compound 0.316 µM, first compound 0.0316 µM
[14] = second compound 0.316 µM, first compound 0.1 µM
[15] = second compound 0.316 µM, first compound 0.316 µM
[16] = second compound 0.316 µM, first compound 1 µM
[17] = second compound 0.316 µM, first compound 3.16 µM
[18] = second compound 0.316 µM, first compound 10 µM
[19] = second compound 1 µM, first compound 0.0316 µM
[20] = second compound 1 µM, first compound 0.1 µM
[21] = second compound 1 µM, first compound 0.316 µM
[22] = second compound 1 µM, first compound 1 µM
[23] = second compound 1 µM, first compound 3.16 µM
[24] = second compound 1 µM, first compound 10 µM
[25] = second compound 3.16 µM, first compound 0.0316 µM
[26] = second compound 3.16 µM, first compound 0.1 µM
[27] = second compound 3.16 µM, first compound 0.316 µM
[28] = second compound 3.16 µM, first compound 1 µM
[29] = second compound 3.16 µM, first compound 3.16 µM
[30] = second compound 3.16 µM, first compound 10 µM
[31] = second compound 10 µM, first compound 0.0316 µM
[32] = second compound 10 µM, first compound 0.1 µM
[33] = second compound 10 µM, first compound 0.316 µM
[34] = second compound 10 µM, first compound 1 µM
[35] = second compound 10 µM, first compound 3.16 µM
[36] = second compound 10 µM, first compound 10 µM
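Also: spheroids exposed to the compounds for one week.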
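For viability, T/C in this document: percent of tumor spheroid viability relative to DMSO vehicle control wells.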

CC1COCCN1c1cc(C2(S(C)(=N)=O)CC2)nc(-c2ccnc3[nH]ccc23)n1 (stereo unspecified) + Cc1cnc(CNC(=O)c2c(=O)c3ccc(N4CCCN(C)CC4)nc3n3c2sc2ccccc23)cn1
< 31.6 nM: IC50 (second compound 0.316 µM) | IC50 (second compound 1 µM) | IC50 (second compound 3.16 µM) | IC50 (second compound 10 µM)
active: viability, T/C [5] 4.2% | viability, T/C [6] 3.7% | viability, T/C [11] 5.24% | viability, T/C [12] 3.6% | viability, T/C [17] 4.98% | viability, T/C [18] 4.66% | viability, T/C [23] 4.36% | viability, T/C [24] 4.77% | viability, T/C [28] 4.84% | viability, T/C [29] 3.04% | viability, T/C [30] 3.44% | viability, T/C [31] 0.12% | viability, T/C [32] 0.18% | viability, T/C [33] 0.22% | viability, T/C [34] 0.19% | viability, T/C [35] 0.24% | viability, T/C [36] 0.23%
inactive: viability, T/C [1] 73.9% | viability, T/C [2] 66.2% | viability, T/C [3] 55.8% | viability, T/C [4] 15.9% | viability, T/C [7] 63.4% | viability, T/C [8] 47.5% | viability, T/C [9] 31.3% | viability, T/C [10] 11.4% | viability, T/C [13] 25.2% | viability, T/C [14] 19.2% | viability, T/C [15] 19.4% | viability, T/C [16] 8.96% | viability, T/C [19] 19.8% | viability, T/C [20] 20.2% | viability, T/C [21] 17.1% | viability, T/C [22] 8.13% | viability, T/C [25] 25.1% | viability, T/C [26] 18.4% | viability, T/C [27] 17%
92.8 nM: IC50 (second compound 0.1 µM)
367 nM: IC50 (second compound 0.0316 µM)

C#Cc1c(F)ccc2cc(O)cc(-c3ncc4c(N5CC6CCC(C5)N6)nc(OCC56CCCN5CC(F)C6)nc4c3F)c12 (stereo unspecified) + Cc1cnc(CNC(=O)c2c(=O)c3ccc(N4CCCN(C)CC4)nc3n3c2sc2ccccc23)cn1
> 10000 nM: IC50 (second compound 0.0316 µM) | IC50 (second compound 0.1 µM)
< 31.6 nM: IC50 (second compound 0.316 µM) | IC50 (second compound 1 µM) | IC50 (second compound 3.16 µM) | IC50 (second compound 10 µM)
inactive: viability, T/C [1] 81.9% | viability, T/C [2] 80.5% | viability, T/C [3] 85.2% | viability, T/C [4] 83.9% | viability, T/C [5] 96.2% | viability, T/C [6] 83.5% | viability, T/C [7] 60.2% | viability, T/C [8] 60.3% | viability, T/C [9] 69.4% | viability, T/C [10] 59.8% | viability, T/C [11] 66.5% | viability, T/C [12] 56.5% | viability, T/C [13] 32.4% | viability, T/C [14] 26.6% | viability, T/C [15] 31.7% | viability, T/C [16] 34.7% | viability, T/C [17] 22.9% | viability, T/C [18] 31.9% | viability, T/C [19] 24.9% | viability, T/C [20] 23.8% | viability, T/C [21] 24.6% | viability, T/C [22] 28.2% | viability, T/C [23] 29.4% | viability, T/C [24] 23.9% | viability, T/C [25] 24.8% | viability, T/C [26] 32.1% | viability, T/C [27] 26.4% | viability, T/C [28] 28.7% | viability, T/C [29] 29.1% | viability, T/C [30] 9.52%
active: viability, T/C [31] 0.12% | viability, T/C [32] 0.16% | viability, T/C [33] 0.18% | viability, T/C [34] 0.13% | viability, T/C [35] 0.19% | viability, T/C [36] 0.16%

CC(=O)O[C@H]1C(=O)[C@@]2(C)[C@H]([C@H](OC(=O)c3ccccc3)[C@]3(O)C[C@H](OC(=O)[C@H](O)[C@@H](NC(=O)c4ccccc4)c4ccccc4)C(C)=C1C3(C)C)[C@]1(OC(C)=O)CO[C@@H]1C[C@@H]2O + Cc1cnc(CNC(=O)c2c(=O)c3ccc(N4CCCN(C)CC4)nc3n3c2sc2ccccc23)cn1
inactive: viability, T/C [1] 11.1% | viability, T/C [25] 12.7%
< 31.6 nM: IC50 (second compound 0.0316 µM) | IC50 (second compound 0.1 µM) | IC50 (second compound 0.316 µM) | IC50 (second compound 1 µM) | IC50 (second compound 3.16 µM) | IC50 (second compound 10 µM)
active: viability, T/C [2] 3.65% | viability, T/C [3] 3.53% | viability, T/C [4] 4.58% | viability, T/C [5] 3.52% | viability, T/C [6] 3.97% | viability, T/C [7] 7.92% | viability, T/C [8] 4.41% | viability, T/C [9] 6.02% | viability, T/C [10] 4.78% | viability, T/C [11] 4.71% | viability, T/C [12] 4.43% | viability, T/C [13] 7.35% | viability, T/C [14] 6.45% | viability, T/C [15] 5.89% | viability, T/C [16] 7.32% | viability, T/C [17] 6.29% | viability, T/C [18] 6.52% | viability, T/C [19] 7.81% | viability, T/C [20] 6.34% | viability, T/C [21] 5.06% | viability, T/C [22] 7.14% | viability, T/C [23] 6.19% | viability, T/C [24] 7.74% | viability, T/C [26] 0.54% | viability, T/C [27] 0.25% | viability, T/C [28] 0.47% | viability, T/C [29] 0.25% | viability, T/C [30] 0.18% | viability, T/C [31] 0.12% | viability, T/C [32] 0.14% | viability, T/C [33] 0.14% | viability, T/C [34] 0.12% | viability, T/C [35] 0.15% | viability, T/C [36] 0.16%
